Experimental data from patent US20090202572A1, “COMPOSITIONS AND METHODS FOR MODULATING BONE MASS” (priority 2004, published 2009).
“Also recorded” adds a separate entry of the source. Like-named read-outs stand apart in the source and are kept apart here.

What was measured:
WT osteoblasts = test: cAMP production in osteoblasts; format: cell-based, mouse
From the text: β2AR is the only post-synaptic β-AR whose expression can be detected in osteoblasts. […] Thus, we used Adrb2−/− mice to study how sympathetic signaling affects bone remodeling in adult animals.

WT mature osteoclasts = test: Osteoclast function: resorption pits on dentine slices; format: cell-based, mouse
From the text: WT or Adrb2 BBMs were differentiated for 2 days with MCS-F and RANK-L, trypsinized and platted on dentine slices for 2 days. Resorption pits were stained with hematoxylin and resorption pit area was quantified (data not shown). To test whether sympathetic signaling could affect osteoclast function, we treated TRAP-positive multinucleated osteoclasts with isoproterenol.

osteoblasts and BMMs = test: Co-culture of osteoblasts and BMMs with 1,25-(OH)2 vitamin D3 (TRAP+ osteoclast count); format: cell-based, mouse; details: for number of TRAP-positive multinucleated osteoclasts in co-culture: WT osteoblasts and WT BMMs, ISO 10 uM, 4 days
Experimental: (§1) BBMs were differentiated with the indicated amounts of RANK-L and MCS-F and the number of TRAP+ osteoclasts was counted after 5 days. […] BBMs were differentiated in presence of MCS-F and RANK-L with or without 10 uM ISO and the number of TRAP+ osteoclasts was counted after 5 days. […] BBMs were differentiated in presence of MCS-F and RANK-L and were treated by ISO (10 μM), dobutamine (Dobu, 10 μM) or calcitonin (100 pg/ml). Intracellular cAMP production was measured by EIA. […] Osteoblasts and BMMs were co-cultured with 1,25(OH)2-vitamin D (10^-8 M) with or without ISO (10 uM) and the number of TRAP+ osteoclasts was counted after 4 days. […] WT and Adrb2 primary osteoblasts were treated for the indicated time with ISO (10 μM) and gene expression was quantified by real-time RT-PCR. (g) Schematic diagram of the structure of Rank-1 and IL6 promoters. Boxes represent CREB-like consensus binding sites.
To that end we performed co-culture of BMMs and osteoblasts prepared from mouse calvariae. In this assay treatment of osteoblasts with 1,25-(OH)2 vitamin D3 leads to the differentiation of BMMs into TRAP-positive multinucleated osteoclasts.

WT mice [1] = test: Gene expression in bones of WT mice treated for 3 weeks; format: in vivo, mouse; details: 3 weeks treatment
From the text: To determine the biological relevance of these findings we performed two experiments. First, we treated WT mice with isoproterenol for 3 weeks and analyzed bone resorption parameters and bone expression of Rank-l and IL6 at the end of this treatment period. […] Second, to determine the role that this physiological regulation may have in pathological conditions such as bone loss developing after menopause, we ovariectomized WT and Adrb2−l− mice at one month of age and analyzed them 3 months later. […] The increase in bone formation that persisted together with the absence of any increase in bone resorption explained why Adrb2−/− mice maintained a higher bone mass than WT mice.

primary osteoblasts = test: Gene expression in primary osteoblasts by real-time RT-PCR; format: cell-based, mouse
Experimental: as §1
To test this hypothesis we analyzed the expression in osteoblasts of genes encoding known regulators of osteoclast differentiation following treatment with isoproterenol.

mature osteoclasts = test: cAMP production in mature osteoclasts (EIA); format: cell-based, mouse; details: ISO 10 μM, calcitonin 100 pg/ml
Experimental: (a) In vitro osteoclastogenesis is not affected by Adrb2 deficiency. BBMs were differentiated with the indicated amounts of RANK-L and MCS-F and the number of TRAP+ osteoclasts was counted after 5 days. (b) In vitro osteoclast differentiation is not affected by Isoproterenol (ISO) treatment. BBMs were differentiated in presence of MCS-F and RANK-L with or without 10 uM ISO and the number of TRAP+ osteoclasts was counted after 5 days. […] BBMs were differentiated in presence of MCS-F and RANK-L and were treated by ISO (10 μM), dobutamine (Dobu, 10 μM) or calcitonin (100 pg/ml). Intracellular cAMP production was measured by EIA. (d) ISO stimulated osteoclast differentiation via stimulation of b2AR in osteoblasts. Osteoblasts and BMMs were co-cultured with 1,25(OH)2-vitamin D (10^-8 M) with or without ISO (10 uM) and the number of TRAP+ osteoclasts was counted after 4 days. (e) ISO induced Rank-l expression in osteoblasts, via b2AR. (f) ISO induced IL6 expression in osteoblasts, via b2AR. WT and Adrb2 primary osteoblasts were treated for the indicated time with ISO (10 μM) and gene expression was quantified by real-time RT-PCR. (g) Schematic diagram of the structure of Rank-1 and IL6 promoters. Boxes represent CREB-like consensus binding sites.
To test whether sympathetic signaling could affect osteoclast function, we treated TRAP-positive multinucleated osteoclasts with isoproterenol.

[2] = test system: bone marrow macrophages (BMMs); test: In vitro osteoclast differentiation of BMMs with RANK-L and M-CSF (TRAP+ count); format: cell-based, mouse; details: 10 uM ISO, counted after 5 days
Experimental: as §1

WT mice [3] = details: stated as known property; cited from earlier work
WT mice [4] = test: Bone remodeling parameters in treated WT mice; format: in vivo, mouse
From the text: (a) von Kossa staining of vertebral sections. Six month old Adrb2−/− and Adrb2+/− mice display an increase in bone volume over tissue volume (BV/TV) compared to wt littermates. (b) Bone formation parameters: bone formation rate (BFR), osteoblast surface over bone surface (ObS/BS) and osteoblast number over bone perimeter (ObNb/BPm) are increased in Adrb2−/− and Adrb2+/− mice. (c) Bone resorption parameters: osteoclast surface over bone surface (OcS/BS), osteoclast number over bone perimeter (OcNb/BPm) and urinary elimination of deoxypiridinoline (dpd) are decreased in Adrb2−/− and Adrb2+/− mice.
First, we analyzed mice lacking only one copy of Adrb2 and compared them to WT mice treated with propranolol, a β-adrenergic receptor antagonist whose administration enhances bone formation in mice. Expression of Adrb2 was first assayed in WT, Adrb2−/− and Adrb2+/− osteoblasts. […] This was due to both an increase in bone formation and a decrease in bone resorption (FIGS. 1b and 1c). To our knowledge, this high bone mass is the only phenotypic consequence reported so far in the case of haploinsufficiency at the Adrb2 locus.

Question: Which “cAMP production in osteoblasts” value (WT osteoblasts) does the source give for `CC(CCc1ccc(O)cc1)NCCc1ccc(O)c(O)c1` (stereo not drawn) [dobutamol] here?
Answer: did not and not

Question: For `CC(C)NCC(O)c1ccc(O)c(O)c1` (stereo not drawn) [isoproterenol], which “osteoclast function (pit formation / resorption pit area on dentine slices)” value (WT mature osteoclasts) is on record?
Answer: did not affect

Question: What about the “osteoclast function (pit formation / resorption pit area on dentine slices)” value (WT mature osteoclasts; listed as ISO) of the same molecule?
Answer: normal

Question: What about the “osteoclast differentiation in co-culture” value (osteoblasts and BMMs; Adrb2−/− osteoblasts with WT BMMs) of the same molecule?
Answer: could not enhance

Question: And the “number of TRAP-positive multinucleated osteoclasts in co-culture” value (osteoblasts and BMMs)?
Answer: significantly increased

Question: And the “number of TRAP-positive multinucleated osteoclasts in co-culture” value (osteoblasts and BMMs; listed as ISO)?
Answer: stimulated

Question: And the “osteoclast differentiation in co-culture” value (osteoblasts and BMMs; WT osteoblasts with Adrb2−/− BMMs)?
Answer: increased

Question: What about the “IL6 expression in bones” value (WT mice [1]) of the same molecule?
Answer: increased

Question: What about the “OPG expression in bones” value (WT mice [1]) of the same molecule?
Answer: unaffected

Question: What about the “Rank-l expression in bones” value (WT mice [1]) of the same molecule?
Answer: increased

Question: And the “induction of Rank-l expression” value (primary osteoblasts; Adrb2−/− osteoblasts)?
Answer: not detected

Question: And the “IL6 expression in osteoblasts” value (primary osteoblasts; ISO 10 μM)?
Answer: increased

Question: And the “IL6 expression in osteoblasts” value (primary osteoblasts; ISO 10 μM, listed as ISO)?
Answer: induced

Question: And the “Rank-l expression in osteoblasts (in words)” value (primary osteoblasts; WT osteoblasts, ISO 10 μM)?
Answer: induced

Question: What about the “increase of Rank-l expression” value (primary osteoblasts; WT osteoblasts, ISO 10 μM) of the same molecule?
Answer: ~20 fold

Question: And the “expression of IL2” value (primary osteoblasts; osteoblasts, data not shown)?
Answer: did not affect

Question: What about the “expression of ILI α” value (primary osteoblasts; osteoblasts, data not shown) of the same molecule?
Answer: did not affect

Question: What about the “expression of M-CSF” value (primary osteoblasts; osteoblasts, data not shown) of the same molecule?
Answer: did not affect

Question: And the “expression of osteoprotegerin (Opg)” value (primary osteoblasts; osteoblasts, data not shown)?
Answer: did not affect

Question: And the “intracellular cAMP production in osteoclasts” value (shortened to “intracellular cAMP production”) (mature osteoclasts)?
Answer: did not induce any significant

Question: What about the “intracellular cAMP production” value (mature osteoclasts; listed as ISO) of the same molecule?
Answer: does not induce

Question: And the “cAMP production in osteoblasts” value (WT osteoblasts)?
Answer: enhances

Question: And the “cAMP production in osteoblasts” value (WT osteoblasts; listed as Isoproterenol)?
Answer: stimulate

Question: And the “number of TRAP-positive multinucleated osteoclasts” value [2]?
Answer: did not affect

Question: And the “number of TRAP-positive multinucleated osteoclasts” value ([2]; listed as Isoproterenol)?
Answer: not affected

Question: What does the source list for `CC(C)NCC(O)COc1cccc2ccccc12` (stereo not drawn) [propranolol]?
Answer: bone formation (WT mice [3]): enhances; bone resorption parameters (OcS/BS, OcNb/BPm, urinary dpd) (WT mice [4]): do not display a significant decrease; also recorded: did not affect

Question: Which “cAMP production in osteoblasts” value (WT osteoblasts) does the source give for `CC(C)(C)NCC(O)c1ccc(O)c(CO)c1` (stereo not drawn) [salbutamol] here?
Answer: stimulated

Question: For calcitonin, which “intracellular cAMP production” value (mature osteoclasts) is on record?
Answer: robust stimulation

B1: Parathyroid hormone (peptide, UniProt P01270 32-115, looked up)
Parathyroid hormone: SVSEIQLMHNLGKHLNSMERVEWLRKKLQDVHNFVALGAPLAPRDAGSQRPRKKEDNVLVESHEKSLGEADKADVNVLTKAKSQ
modifications: Parathyroid hormone
notes: Parathyroid hormone (PTH)
Question: Which “cAMP production in osteoblasts” value (WT osteoblasts) does the source give for B1 here?
Answer: stimulate
